# Measured values taken from patent publication US10577365B2, “Derivatives of quinoline as inhibitors of DYRK1A and/or DYRK1B kinases” (Felicitex Therapeutics, Inc., priority 2016, dated 2020).
# pIC50: −log10 of the molar value. Counter-ions that a name gives are not always drawn.
# Key:
# DYRK1A = target: T1, DYRK1A (Homo sapiens, UniProt Q13627); test: DYRK1A in vitro kinase assay (ADP-Glo); type: biochemical; settings: ATP 70 μM (Km), substrate 3 μM, enzyme 2 nM or 0.7 nM, 30 min, rt
# T1 construct: purchased Carna Bioscence (Carna Biosciences) 04-130
# Protocol: The compounds of the present invention were tested for their inhibitory activity against DYRK1A and DYRK1B kinases once or several times. When tested more than once, the data are reported herein as average value, wherein the average value, also referred to as the mean value, represents the sum of obtained values divided by the number of times tested.
# DYRK-inhibitory activity of the compounds of the present invention was tested using the ADP-Glo™ assay as described in the following paragraphs. The procedure for determining the IC50 values with the ADP-Glo™ assay in in vitro kinase assays consists of two parts:
# 1. Kinase reaction performed under optimized conditions;
# 2. Detection of ADP as a product of the reaction using ADP-Glo™ system (Promega).
# The tested compounds indicated in Table 5 below were dissolved in DMSO, then transferred to the V-bottom PP plate to perform nine serial dilutions (in order to obtain dose-response curves) in 25% DMSO, as indicated in Table 5 below.
# The optimized conditions for performing DYRK1A in vitro kinase assay were as follows:
# For compound testing, the following protocol was used: two mixes were prepared on ice, Mix 1 containing substrate, ATP and reaction buffer and Mix 2 containing reaction buffer and the kinase. 15 μL per well of Mix 1 was transferred to wells of a 96-well plate. Next, 2.5 μL of the pre-diluted compound to be tested was added to Mix 1, followed by the addition of 12.5 μL of Mix 2. Total reaction volume was 30 μL per well. The experiment was performed in duplicate for each data point being examined. Dose response curve for the positive control was carried out on each assay plate by adding the reference inhibitory compound staurosporine. For each test, three controls were also included: (i) 30 μL of the reaction mixture containing: reaction buffer, ATP, kinase, DMSO without substrate (quasi-positive control); (ii) 30 μL of the reaction mixture containing reaction buffer, substrate, ATP, DMSO without kinase (background control); (iii) 30 μL of the reaction mixture containing reaction buffer, substrate, kinase, ATP, DMSO (vehicle control). Final concentration of DMSO in the reaction was 2%. To detect the ADP amount produced during the kinase reaction, the commercially available kit ADP-Glo™ Kinase Assay (Promega, cat. No # V9103) was used. The protocol used for the detection was based on the Technical Bulletin of the ADP-Glo™ Kinase Assay (Promega) and was adapted to 96-well plate containing 30 μL reaction mixture as explained below.
# 30 μL of ADP-Glo™ Reagent was added to each well of a 96 well plate containing 30 μL of reaction mixture to terminate the kinase reaction and deplete the remaining ATP. The plate was incubated for 60 minutes on a shaker at rt. 60 μL of Kinase Detection Solution was then added to each well of 96-well plate containing 60 μL of the solution to convert ADP to ATP and to allow the newly synthesized ATP to be measured using a luciferase/luciferin reaction (ratio of kinase reaction volume to ADP Glo™ Reagent volume to Kinase Detection Solution volume was maintained at 1:1:2). The plate was incubated for 40 minutes on a shaker at rt, protected from light. Luminescence was measured in the plate reader, wherein the luminescent signal is proportional to the ADP concentration produced and thus correlates with kinase activity.
# After data normalization to controls (complete reaction mix and no-substrate control) and transforming X values (test compound concentrations) using: X=log(X), IC50 values were determined, using the GraphPad Prism 6.0 [log(agonist) vs. normalized response—Variable slope].
# DYRK1B = target: T2, DYRK1B (Homo sapiens, UniProt Q9Y463); test: DYRK1B in vitro kinase assay (ADP-Glo); type: biochemical; settings: ADP-Glo assay, ATP 15 μM (Km), substrate 7 μM, enzyme 1 nM or 0.3 nM, 1 h, rt; read-out: DYRK1B IC50
# T2 construct: purchased Carna Bioscence (Carna Biosciences) 04-131
# T2 sequence (Q9Y463 whole entry): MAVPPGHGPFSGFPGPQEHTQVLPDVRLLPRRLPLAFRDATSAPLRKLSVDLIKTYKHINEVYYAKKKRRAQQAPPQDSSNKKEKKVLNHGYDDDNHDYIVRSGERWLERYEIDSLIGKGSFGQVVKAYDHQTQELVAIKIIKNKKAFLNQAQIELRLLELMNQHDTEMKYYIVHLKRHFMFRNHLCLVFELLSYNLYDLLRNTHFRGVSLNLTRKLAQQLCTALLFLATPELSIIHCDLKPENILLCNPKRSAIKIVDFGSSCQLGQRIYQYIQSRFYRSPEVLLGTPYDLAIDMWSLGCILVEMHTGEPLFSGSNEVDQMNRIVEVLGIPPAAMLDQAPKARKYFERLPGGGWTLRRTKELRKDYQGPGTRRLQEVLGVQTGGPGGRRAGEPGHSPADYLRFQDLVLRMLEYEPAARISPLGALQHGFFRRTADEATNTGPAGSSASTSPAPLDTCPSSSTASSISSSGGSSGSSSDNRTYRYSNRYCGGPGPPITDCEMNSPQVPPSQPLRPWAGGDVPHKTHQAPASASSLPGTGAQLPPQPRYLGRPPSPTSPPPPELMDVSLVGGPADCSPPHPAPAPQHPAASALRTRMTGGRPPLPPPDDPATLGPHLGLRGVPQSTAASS
# Protocol: The compounds of the present invention were tested for their inhibitory activity against DYRK1A and DYRK1B kinases once or several times. When tested more than once, the data are reported herein as average value, wherein the average value, also referred to as the mean value, represents the sum of obtained values divided by the number of times tested. DYRK-inhibitory activity of the compounds of the present invention was tested using the ADP-Glo™ assay as described in the following paragraphs. The procedure for determining the IC50 values with the ADP-Glo™ assay in in vitro kinase assays consists of two parts: […] Kinase reaction performed under optimized conditions; 2. Detection of ADP as a product of the reaction using ADP-Glo™ system (Promega). The tested compounds indicated in Table 5 below were dissolved in DMSO, then transferred to the V-bottom PP plate to perform nine serial dilutions (in order to obtain dose-response curves) in 25% DMSO, as indicated in Table 5 below. The optimized conditions for performing DYRK1B in vitro kinase assay were as follows: [table] For compound testing, the following protocol was used: two mixes were prepared on ice, Mix 1 containing substrate, ATP and reaction buffer and Mix 2 containing reaction buffer and the kinase. 15 μL per well of Mix 1 was transferred to wells of a 96-well plate. […] Total reaction volume was 30 μL per well. The experiment was performed in duplicate for each data point being examined. Dose response curve for the positive control was carried out on each assay plate by adding the reference inhibitory compound staurosporine. For each test, three controls were also included: (i) 30 μL of the reaction mixture containing: reaction buffer, ATP, kinase, DMSO without substrate (quasi-positive control); (ii) 30 μL of the reaction mixture containing reaction buffer, substrate, ATP, DMSO without kinase (background control); (iii) 30 μL of the reaction mixture containing reaction buffer, substrate, kinase, ATP, DMSO (vehicle control). Final concentration of DMSO in the reaction was 2%. To detect the ADP amount produced during the kinase reaction, the commercially available kit ADP-Glo™ Kinase Assay (Promega, cat. No # V9103) was used. The protocol used for the detection was based on the Technical Bulletin of the ADP-Glo™ Kinase Assay (Promega) and was adapted to 96-well plate containing 30 μL reaction mixture as explained below. 30 μL of ADP-Glo™ Reagent was added to each well of a 96 well plate containing 30 μL of reaction mixture to terminate the kinase reaction and deplete the remaining ATP. The plate was incubated for 60 minutes on a shaker at rt. 60 μL of Kinase Detection Solution was then added to each well of 96-well plate containing 60 μL of the solution to convert ADP to ATP and to allow the newly synthesized ATP to be measured using a luciferase/luciferin reaction (ratio of kinase reaction volume to ADP Glo™ Reagent volume to Kinase Detection Solution volume was maintained at 1:1:2). The plate was incubated for 40 minutes on a shaker at rt, protected from light. Luminescence was measured in the plate reader, wherein the luminescent signal is proportional to the ADP concentration produced and thus correlates with kinase activity. After data normalization to controls (complete reaction mix and no-substrate control) and transforming X values (test compound concentrations) using: X=log(X), IC50 values were determined, using the GraphPad Prism 6.0 [log(agonist) vs. normalized response—Variable slope].
SMILES,pIC50 (DYRK1A),pIC50 (DYRK1B)
"C=CCCCc1ccnc2ccc(-c3c[nH]c4ncc(CN(C)CC=C)cc34)cc12 [Example 21, Methyl({3-[4-(pent-4-en-1-yl)quinolin-6-yl]-1H-pyrrolo[2,3-b]pyridin-5-yl}methyl)(prop-2-en-1-yl)amine]",7.00 to 8.00,> 8.00
"CNC(=O)c1cnc2[nH]cc(-c3ccc4nccc(-c5cccnc5)c4c3)c2c1 [Example 22, N-Methyl-3-[4-(pyridin-3-yl)quinolin-6-yl]-1H-pyrrolo[2,3-b]pyridine-5-carboxamide]",> 8.00,> 8.00
"CNC(=O)c1cnc2[nH]cc(-c3ccc4nccc(N5CCOCC5)c4c3)c2c1 [Example 23, N-Methyl-3-[4-(morpholin-4-yl)quinolin-6-yl]-1H-pyrrolo[2,3-b]pyridine-5-carboxamide]",> 8.00,> 8.00
"CNC(=O)c1cnc2[nH]cc(-c3ccc4nccc(Cl)c4c3)c2c1 [Example 24, 3-(4-Chloroquinolin-6-yl)-N-methyl-1H-pyrrolo[2,3-b]pyridine-5-carboxamide]",> 8.00,> 8.00
"O=C(NCc1ccccc1)c1cnc2[nH]cc(-c3cc(F)c4nccc(-c5cccnc5)c4c3)c2c1 [Example 36, N-Benzyl-3-[8-fluoro-4-(pyridin-3-yl)quinolin-6-yl]-1H-pyrrolo[2,3-b]pyridine-5-carboxamide]",7.00 to 8.00,> 8.00
"C=CCN(C)C(=O)c1cnc2[nH]cc(-c3cc(F)c4nccc(-c5cccnc5)c4c3)c2c1 [Example 38, 3-[8-Fluoro-4-(pyridin-3-yl)quinolin-6-yl]-N-methyl-N-(prop-2-en-1-yl)-1H-pyrrolo[2,3-b]pyridine-5-carboxamide]",7.00 to 8.00,> 8.00
"CNC(=O)c1cnc2[nH]cc(-c3cc(F)c4nccc(-c5cccnc5)c4c3)c2c1 [Example 39, 3-[8-Fluoro-4-(pyridin-3-yl)quinolin-6-yl]-N-methyl-1H-pyrrolo[2,3-b]pyridine-5-carboxamide]",> 8.00,> 8.00
"CNC(=O)c1cnc2[nH]cc(-c3cc(F)c4nccc(CCc5ccccc5)c4c3)c2c1 [Example 40, 3-[8-Fluoro-4-(2-phenylethyl)quinolin-6-yl]-N-methyl-1H-pyrrolo[2,3-b]pyridine-5-carboxamide]",> 8.00,> 8.00

# More lines, now with the values ahead:
pIC50 (DYRK1A),pIC50 (DYRK1B),SMILES
> 8.00,> 8.00,"CNC(=O)c1cnc2[nH]cc(-c3ccc4ncccc4c3)c2c1 [Example 25, N-Methyl-3-(quinolin-6-yl)-1H-pyrrolo[2,3-b]pyridine-5-carboxamide]"
< 7.00,< 7.00,"C=CCN(C)C(=O)c1cnc2[nH]cc(-c3cc(OC)c4ncccc4c3)c2c1 [Example 26, 3-(8-Methoxyquinolin-6-yl)-N-methyl-N-(prop-2-en-1-yl)-1H-pyrrolo[2,3-b]pyridine-5-carboxamide]"
> 8.00,> 8.00,"C=CCN(C)C(=O)c1cnc2[nH]cc(-c3cc(F)c4ncccc4c3)c2c1 [Example 27, 3-(8-Fluoroquinolin-6-yl)-N-methyl-N-(prop-2-en-1-yl)-1H-pyrrolo[2,3-b]pyridine-5-carboxamide]"
7.00 to 8.00,> 8.00,"C=CCN(C)C(=O)c1cnc2[nH]cc(-c3cc(Cl)c4ncccc4c3)c2c1 [Example 28, 3-(8-Chloroquinolin-6-yl)-N-methyl-N-(prop-2-en-1-yl)-1H-pyrrolo[2,3-b]pyridine-5-carboxamide]"
> 8.00,> 8.00,"CNC(=O)c1cnc2[nH]cc(-c3cc(F)c4ncccc4c3)c2c1 [Example 30, 3-(8-Fluoroquinolin-6-yl)-N-methyl-1H-pyrrolo[2,3-b]pyridine-5-carboxamide]"
> 8.00,> 8.00,"O=C(NCc1ccccc1)c1cnc2[nH]cc(-c3cc(F)c4ncccc4c3)c2c1 [Example 31, N-Benzyl-3-(8-fluoroquinolin-6-yl)-1H-pyrrolo[2,3-b]pyridine-5-carboxamide]"
7.00 to 8.00,> 8.00,"O=C(NCc1ccccc1)c1cnc2[nH]cc(-c3cc(Cl)c4ncccc4c3)c2c1 [Example 32, N-Benzyl-3-(8-chloroquinolin-6-yl)-1H-pyrrolo[2,3-b]pyridine-5-carboxamide]"
> 8.00,> 8.00,"NC(=O)c1cnc2[nH]cc(-c3cc(F)c4ncccc4c3)c2c1 [Example 33, 3-(8-Fluoroquinolin-6-yl)-1H-pyrrolo[2,3-b]pyridine-5-carboxamide]"
> 8.00,> 8.00,"NCCCNC(=O)c1cnc2[nH]cc(-c3cc(Cl)c4ncccc4c3)c2c1 [Example 34, N-(3-Aminopropyl)-3-(8-chloroquinolin-6-yl)-1H-pyrrolo[2,3-b]pyridine-5-carboxamide hydrochloride]"
> 8.00,> 8.00,"NCCCNC(=O)c1cnc2[nH]cc(-c3cc(F)c4ncccc4c3)c2c1 [Example 35, N-(3-Aminopropyl)-3-(8-fluoroquinolin-6-yl)-1H-pyrrolo[2,3-b]pyridine-5-carboxamide hydrochloride]"
> 8.00,> 8.00,"NCCCNC(=O)c1cnc2[nH]cc(-c3cc(F)c4nccc(-c5cccnc5)c4c3)c2c1 [Example 37, N-(3-Aminopropyl)-3-[8-fluoro-4-(pyridin-3-yl)quinolin-6-yl]-1H-pyrrolo[2,3-b]pyridine-5-carboxamide hydrochloride]"
